Measured values from PubChem BioAssay (NCI).
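Results reflect a 48-hour exposure of cells in 96-well plates to compound at five concentrations. The concentration for full growth arrest is given as TGI.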

What was measured:
Assay in all cases: NCI tumour cell line growth inhibition, 48 h
UACC-257 melanoma = tested on: UACC-257 melanoma
HL-60(TB) leukemia = tested on: HL-60(TB) leukemia
HS 578T breast = tested on: HS 578T breast
T-47D breast = tested on: T-47D breast
SW-620 colon = tested on: SW-620 colon
MDA-N = tested on: MDA-N
LOX IMVI melanoma = tested on: LOX IMVI melanoma
UACC-62 melanoma = tested on: UACC-62 melanoma
A549 NSCLC = tested on: A549 NSCLC
M14 melanoma = tested on: M14 melanoma
K-562 leukemia = tested on: K-562 leukemia
MCF7 breast = tested on: MCF7 breast
BT-549 breast = tested on: BT-549 breast
DU-145 prostate = tested on: DU-145 prostate
SF-268 CNS = tested on: SF-268 CNS
SNB-19 CNS = tested on: SNB-19 CNS
NCI/ADR-RES ovarian = tested on: NCI/ADR-RES ovarian
NCI-H522 lung = tested on: NCI-H522 lung
HCT-15 colon = tested on: HCT-15 colon
MOLT-4 leukemia = tested on: MOLT-4 leukemia
U251 CNS = tested on: U251 CNS
HOP-92 NSCLC = tested on: HOP-92 NSCLC
SF-539 CNS = tested on: SF-539 CNS
NCI-H460 lung = tested on: NCI-H460 lung
NCI-H226 lung = tested on: NCI-H226 lung
UO-31 renal = tested on: UO-31 renal
786-0 renal = tested on: 786-0 renal
COLO 205 colon = tested on: COLO 205 colon
HCT-116 colon = tested on: HCT-116 colon
OVCAR-3 ovarian = tested on: OVCAR-3 ovarian
ACHN renal = tested on: ACHN renal
SNB-75 CNS = tested on: SNB-75 CNS
OVCAR-8 ovarian = tested on: OVCAR-8 ovarian
OVCAR-5 ovarian = tested on: OVCAR-5 ovarian
RXF 393 renal = tested on: RXF 393 renal
HT29 colon = tested on: HT29 colon
KM12 colon = tested on: KM12 colon
HOP-62 NSCLC = tested on: HOP-62 NSCLC
CAKI-1 renal = tested on: CAKI-1 renal
CCRF-CEM leukemia = tested on: CCRF-CEM leukemia
MALME-3M melanoma = tested on: MALME-3M melanoma
MDA-MB-231 breast = tested on: MDA-MB-231 breast
TK-10 renal = tested on: TK-10 renal
EKVX NSCLC = tested on: EKVX NSCLC
HCC-2998 colon = tested on: HCC-2998 colon
SK-MEL-5 melanoma = tested on: SK-MEL-5 melanoma
SN12C renal = tested on: SN12C renal
A498 renal = tested on: A498 renal
SF-295 CNS = tested on: SF-295 CNS
IGROV1 ovarian = tested on: IGROV1 ovarian
MDA-MB-435 = tested on: MDA-MB-435
SK-MEL-28 melanoma = tested on: SK-MEL-28 melanoma
OVCAR-4 ovarian = tested on: OVCAR-4 ovarian
SK-OV-3 ovarian = tested on: SK-OV-3 ovarian
NCI-H23 lung = tested on: NCI-H23 lung
PC-3 prostate = tested on: PC-3 prostate
RPMI-8226 leukemia = tested on: RPMI-8226 leukemia
SK-MEL-2 melanoma = tested on: SK-MEL-2 melanoma

## Cc1nn2c(C(=O)N/N=C/c3ccc([N+](=O)[O-])cc3)c(C)nc2s1
UACC-257 melanoma
  TGI: > 100 µM
HL-60(TB) leukemia
  TGI: > 100 µM
HS 578T breast
  TGI: > 100 µM
T-47D breast
  TGI: > 100 µM
SW-620 colon
  TGI: > 100 µM
MDA-N
  TGI: > 100 µM
LOX IMVI melanoma
  TGI: > 100 µM
UACC-62 melanoma
  TGI: > 100 µM
A549 NSCLC
  TGI: > 100 µM
M14 melanoma
  TGI: > 100 µM
K-562 leukemia
  TGI: > 100 µM
MCF7 breast
  TGI: > 100 µM
BT-549 breast
  TGI: > 100 µM
DU-145 prostate
  TGI: > 100 µM
SF-268 CNS
  TGI: > 100 µM
SNB-19 CNS
  TGI: > 100 µM
NCI/ADR-RES ovarian
  TGI: > 100 µM
NCI-H522 lung
  TGI: > 100 µM
HCT-15 colon
  TGI: > 100 µM
MOLT-4 leukemia
  TGI: > 100 µM
U251 CNS
  TGI: 53.5 µM
HOP-92 NSCLC
  TGI: > 100 µM
SF-539 CNS
  TGI: > 100 µM
NCI-H460 lung
  TGI: > 100 µM
NCI-H226 lung
  TGI: > 100 µM
UO-31 renal
  TGI: > 100 µM
786-0 renal
  TGI: > 100 µM
COLO 205 colon
  TGI: > 100 µM
HCT-116 colon
  TGI: > 100 µM
OVCAR-3 ovarian
  TGI: > 100 µM
ACHN renal
  TGI: > 100 µM
SNB-75 CNS
  TGI: > 100 µM
OVCAR-8 ovarian
  TGI: > 100 µM
OVCAR-5 ovarian
  TGI: > 100 µM
RXF 393 renal
  TGI: > 100 µM
HT29 colon
  TGI: > 100 µM
KM12 colon
  TGI: > 100 µM
HOP-62 NSCLC
  TGI: > 100 µM
CAKI-1 renal
  TGI: > 100 µM
CCRF-CEM leukemia
  TGI: > 100 µM
MALME-3M melanoma
  TGI: > 100 µM
MDA-MB-231 breast
  TGI: 49.4 µM
TK-10 renal
  TGI: > 100 µM
EKVX NSCLC
  TGI: > 100 µM
HCC-2998 colon
  TGI: > 100 µM
SK-MEL-5 melanoma
  TGI: > 100 µM
SN12C renal
  TGI: > 100 µM
A498 renal
  TGI: > 100 µM
SF-295 CNS
  TGI: > 100 µM
IGROV1 ovarian
  TGI: > 100 µM
MDA-MB-435
  TGI: > 100 µM
SK-MEL-28 melanoma
  TGI: > 100 µM
OVCAR-4 ovarian
  TGI: > 100 µM
SK-OV-3 ovarian
  TGI: 87 µM
NCI-H23 lung
  TGI: > 100 µM

## O=[N+]([O-])/C(C(Cl)=C(Cl)Cl)=C(\Nc1ccccc1)n1nnc2ccccc21
UACC-257 melanoma
  TGI: > 100 µM
HS 578T breast
  TGI: 38.7 µM
T-47D breast
  TGI: > 100 µM
SW-620 colon
  TGI: > 100 µM
MDA-N
  TGI: > 100 µM
LOX IMVI melanoma
  TGI: 31.2 µM
UACC-62 melanoma
  TGI: > 100 µM
A549 NSCLC
  TGI: > 100 µM
M14 melanoma
  TGI: > 100 µM
K-562 leukemia
  TGI: > 100 µM
MCF7 breast
  TGI: > 100 µM
BT-549 breast
  TGI: 70.2 µM
SF-268 CNS
  TGI: 36.3 µM
SNB-19 CNS
  TGI: > 100 µM
NCI/ADR-RES ovarian
  TGI: > 100 µM
HCT-15 colon
  TGI: > 100 µM
MOLT-4 leukemia
  TGI: > 100 µM
U251 CNS
  TGI: > 100 µM
SF-539 CNS
  TGI: > 100 µM
NCI-H460 lung
  TGI: > 100 µM
NCI-H226 lung
  TGI: > 100 µM
UO-31 renal
  TGI: 48.9 µM
786-0 renal
  TGI: > 100 µM
COLO 205 colon
  TGI: > 100 µM
HCT-116 colon
  TGI: > 100 µM
PC-3 prostate
  TGI: > 100 µM
OVCAR-3 ovarian
  TGI: > 100 µM
ACHN renal
  TGI: > 100 µM
SNB-75 CNS
  TGI: > 100 µM
OVCAR-8 ovarian
  TGI: > 100 µM
OVCAR-5 ovarian
  TGI: > 100 µM
HT29 colon
  TGI: > 100 µM
KM12 colon
  TGI: 48 µM
HOP-62 NSCLC
  TGI: 93.6 µM
CAKI-1 renal
  TGI: > 100 µM
CCRF-CEM leukemia
  TGI: 65.9 µM
MALME-3M melanoma
  TGI: > 100 µM
MDA-MB-231 breast
  TGI: > 100 µM
EKVX NSCLC
  TGI: > 100 µM
HCC-2998 colon
  TGI: > 100 µM
SN12C renal
  TGI: > 100 µM
A498 renal
  TGI: > 100 µM
SF-295 CNS
  TGI: > 100 µM
MDA-MB-435
  TGI: 86.5 µM
RPMI-8226 leukemia
  TGI: 93 µM
SK-MEL-28 melanoma
  TGI: > 100 µM
OVCAR-4 ovarian
  TGI: 35 µM
SK-MEL-2 melanoma
  TGI: 75.2 µM
SK-OV-3 ovarian
  TGI: > 100 µM
NCI-H23 lung
  TGI: 61.2 µM
